The results in this text go back to article PMC6128908, “Potent PDZ-Domain PICK1 Inhibitors that Modulate Amyloid Beta-Mediated Synaptic Dysfunction” (Scientific Reports, 2018).

SMILES strings stand for the structures. pIC50: −log10 of the molar value. “And” between values parts separate entries of the source, which are not always exact repeats. Identical values can stand only once.

Sequence of PICK1 (Q9NRD5 1-356): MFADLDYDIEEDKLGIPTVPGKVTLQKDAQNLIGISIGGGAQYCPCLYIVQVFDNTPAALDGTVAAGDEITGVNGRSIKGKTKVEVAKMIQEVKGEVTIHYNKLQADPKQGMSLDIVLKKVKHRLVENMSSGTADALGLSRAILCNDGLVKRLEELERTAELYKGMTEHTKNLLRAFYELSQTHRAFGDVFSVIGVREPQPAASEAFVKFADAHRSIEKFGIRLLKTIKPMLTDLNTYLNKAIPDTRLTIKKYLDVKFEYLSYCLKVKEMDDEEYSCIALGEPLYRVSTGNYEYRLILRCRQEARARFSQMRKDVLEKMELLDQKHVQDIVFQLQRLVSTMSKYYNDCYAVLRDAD

One assay addresses PICK1 (Homo sapiens, UniProt Q9NRD5). The experiment in a line: PICK1 competition (displacement) assay with tracer BIO424.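 Also: in vitro displacement assay with baculovirus-expressed, truncated dimeric PICK1 missing its final 59 residues.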 Conditions: IC50 (potency).
Method: (§1) Fluorescence polarization (FP) and competition binding assays were used to determine PDZ binding affinities and selectivity of compounds as described in Alfonso et al.[20]. Briefly, a fixed concentration (5 nM) of Fluorescein isothiocyanate-labeled peptides comprising the C-terminal amino acids of GluA2 (875–883) and N-methyl-D-aspartate receptor subunit 2B (1474–1482) was used. Binding FP assays were carried out using increasing concentrations of recombinant full-length PICK1, postsynaptic density 95 (PSD95) PDZ 1–2, or Shank3 PDZ, and normalized by subtracting the tracer-only background.
Two recombinant PICK1 constructs were used in this study. […] A truncated, dimeric form of PICK1 lacking the last 59 residues was expressed in baculovirus and purified to homogeneity for use in the in vitro displacement assay. In general, both proteins were purified by Nickel chromatograpy followed by size exclusion chromatography.
For `CC(C)(C)OC(=O)N1CCC[C@H]1C(=O)N1CCC(C(=O)N[C@@H](CC2CC2)C(=O)O)(c2ccc(C(F)(F)F)cc2)CC1` [1n], the pIC50 was 6.89.

The same assay, now with this note: IC50, BIO424 as tracer.
Regarding `O=C(O)[C@H](CC1CC1)NC(=O)C1(c2ccc(C(F)(F)F)cc2)CCN(c2cc(F)cc3cccnc23)CC1` [1y], the pIC50 is 6.20.
On the same count and under the same terms, the figure for `CC(C)[C@H](NC(=O)C1(c2ccccc2)CCN(C(=O)[C@@H]2CCCN2C(=O)OC(C)(C)C)CC1)C(=O)O` [1a] is 4.72; for `O=C(O)[C@H](CC1CC1)NC(=O)C1(c2ccc(C(F)(F)F)cc2)CCN(c2cc(C(F)(F)F)cc3cccnc23)CC1` [1ab] it is 6.98.
For the molecule `CC(C)[C@H](NC(=O)C1(C2CCCCC2)CCN(C(=O)[C@@H]2CCCN2C(=O)OC(C)(C)C)CC1)C(=O)O` [1b], the negative logarithm of the IC50 (pIC50) is 4.76.
For `CCc1cc(N2CCC(C(=O)N[C@@H](CC3CC3)C(=O)O)(c3ccc(C(F)(F)F)cc3)CC2)c2ncccc2c1` [1w], the pIC50 is 6.57.
The same measure, in the same setting: then `O=C(O)[C@H](CC1CC1)NC(=O)C1(c2ccc(Br)cc2)CCN(Cc2ccc(C(F)(F)F)cc2)CC1` [1q], with 5.23; and `O=C(O)[C@H](CC1CC1)NC(=O)C1(c2ccc(C(F)(F)F)cc2)CCN(c2ccccc2)CC1` [1s], with 5.69; and `CC(C)c1cc(N2CCC(C(=O)N[C@@H](CC3CC3)C(=O)O)(c3ccc(C(F)(F)F)cc3)CC2)c2ncccc2c1` [1x], with 6.29.
Same read-out and setting: the figure for `CC(C)[C@H](NC(=O)C1(c2ccc(Br)cc2)CCN(C(=O)[C@@H]2CCCN2C(=O)OC(C)(C)C)CC1)C(=O)O` [1e] is 5.37.
The same measure, in the same setting: the figure for `O=C(O)[C@H](CC1CC1)NC(=O)C1(c2ccc(C(F)(F)F)cc2)CCN(c2cc(Br)cc3cccnc23)CC1` [1aa] is 7.12.
For `CC(C)(C)OC(=O)N1CCC[C@H]1C(=O)N1CCC(C(=O)NC(C)(C)C(=O)O)(c2ccc(Br)cc2)CC1` [1i], the negative logarithm of the IC50 (pIC50) is below 3.76.
Still for that read-out and setting: then `CC(C)(C)OC(=O)N1CCC[C@H]1C(=O)N1CCC(C(=O)N[C@@H](CC2CC2)C(=O)O)(c2ccc(Br)cc2)CC1` [1m], with 6.14; and `CC(C)[C@H](NC(=O)C1(c2ccc(C(F)(F)F)cc2)CCN(C(=O)[C@@H]2CCCN2C(=O)OC(C)(C)C)CC1)C(=O)O` [1f], with 5.81 and 5.80; and `O=C(O)[C@H](CC1CC1)NC(=O)C1(c2ccc(C(F)(F)F)cc2)CCN(c2cccc3cccnc23)CC1` [1u], with 5.34.
Still for that read-out and setting: the figure for `C[C@H](NC(=O)C1(c2ccc(Br)cc2)CCN(C(=O)[C@@H]2CCCN2C(=O)OC(C)(C)C)CC1)C(=O)O` [1h] is 4.92; for `Cc1cc(N2CCC(C(=O)N[C@@H](CC3CC3)C(=O)O)(c3ccc(C(F)(F)F)cc3)CC2)c2ncccc2c1` [1v] it is 6.46; for `CC(C)(C)OC(=O)N1CCC[C@H]1C(=O)N1CCC(C(=O)NCC(=O)O)(c2ccc(Br)cc2)CC1` [1g] it is below 3.76.
`CC(C)(C)OC(=O)N1CCC[C@H]1C(=O)N1CCC(C(=O)N[C@H](C(=O)O)C2CCCC2)(c2ccc(Br)cc2)CC1` [1l] gave a pIC50 of 6.09.
In turn, `CC(C)(C)OC(=O)N1CCC[C@H]1C(=O)N1CCC(C(=O)N[C@@H](Cc2c[nH]c3ccccc23)C(=O)O)(c2ccc(Br)cc2)CC1` [1j] had a pIC50 below 3.76.
The same measure, in the same setting: the figure for `CC(C)[C@H](NC(=O)C1(N2CCOCC2)CCN(C(=O)[C@@H]2CCCN2C(=O)OC(C)(C)C)CC1)C(=O)O` [1c] is around 3.76; for `COc1cc(N2CCC(C(=O)N[C@@H](CC3CC3)C(=O)O)(c3ccc(C(F)(F)F)cc3)CC2)c2ncccc2c1` [1ac] it is 6.25.
Still for that read-out and setting: the figure for `CC(C)(C)OC(=O)N1CCC[C@H]1C(=O)N1CCC(C(=O)N[C@@H](Cc2c[nH]cn2)C(=O)O)(c2ccc(Br)cc2)CC1` [1k] is below 3.76.
Same read-out and setting: then `O=C(O)[C@H](CC1CC1)NC(=O)C1(c2ccc(C(F)(F)F)cc2)CCN(c2cccc3ccccc23)CC1` [1t], with 5.07; and `O=C(O)[C@H](CC1CC1)NC(=O)C1(c2ccc(Br)cc2)CCN(Cc2cccc(C(F)(F)F)c2)CC1` [1p], with 5.59; and `CC(C)[C@H](NC(=O)C1(Cc2ccccc2)CCN(C(=O)[C@@H]2CCCN2C(=O)OC(C)(C)C)CC1)C(=O)O` [1d], with 4.69.
The molecule `O=C(O)[C@H](CC1CC1)NC(=O)C1(c2ccc(C(F)(F)F)cc2)CCN(c2cc(OC(F)(F)F)cc3cccnc23)CC1` [1ad] showed a pIC50 of 5.64.
Same read-out and setting: then `O=C(O)[C@H](CC1CC1)NC(=O)C1(c2ccc(Br)cc2)CCN(Cc2ccccc2C(F)(F)F)CC1` [1o], with 6.24.

Still in this assay, the particulars now being: relative to 1u.
Take `Cc1cc(N2CCC(C(=O)N[C@@H](CC3CC3)C(=O)O)(c3ccc(C(F)(F)F)cc3)CC2)c2ncccc2c1` [1v]: the “fold more potent than the unsubstituted quinoline” value is recorded as 10 fold.

The target in a further assay is T1, Shank3 PDZ (Homo sapiens, UniProt Q9BYB0).
T1 construct: Human Shank3 PDZ domain (residues 663–757); made in house; host or cells: E. coli
T1 sequence (Q9BYB0 646-740 limits assumed): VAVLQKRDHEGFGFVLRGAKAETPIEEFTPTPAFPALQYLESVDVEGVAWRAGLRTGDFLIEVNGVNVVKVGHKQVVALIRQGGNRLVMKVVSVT
The assay can be described thus: Fluorescence polarization selectivity assay, FITC-labeled GKAP peptide. Conditions: Supplemental Fig. 3D. In kind it is binding.
Method: as §1
`O=C(O)[C@H](CC1CC1)NC(=O)C1(c2ccc(Br)cc2)CCN(Cc2ccccc2C(F)(F)F)CC1` [1o]: the “selectivity for PICK1 over Shank PDZ domain” value is given as “selectivity”.

The next assay has as its system GRIP. The assay can be described thus: PDZ selectivity counter-screen against GRIP. The note with it: data not shown. It is filed as binding. An excerpt:
Having addressed the potency issue for this tool, we then looked into how selective this compound series was for PICK1 over other closely related PDZ domains. Since the ligand GluA2 recognizes both PICK1 and GRIP we were unsure of whether we could get a selective compound. GRIP (6 PDZ domain-containing protein) is the most closely related PDZ domain to PICK1. PSD95 ([…]) and Shank (a single PDZ domain scaffolding molecule), are also important to counter-screen as they are also located in neurons and could be considered a liability if they were inhibited (Supplemental Fig. 3). […] The selectivity observed for compound 1o was also observed for compound 1z[20].
Consider `O=C(O)[C@H](CC1CC1)NC(=O)C1(c2ccc(Br)cc2)CCN(Cc2ccccc2C(F)(F)F)CC1` [1o], for which the “selectivity for PICK1 over GRIP” value was “selectivity”.
